Measured values reported in publication PMC10328330 (PLOS ONE, 2023).
Like-named read-outs stand apart in the source and are kept apart here. Numbered stars: 1 amine (or outer) side, 2 acyl side, 3 side chain; on linkers, the order of the positions; unused ones are H or OH. Bridge positions count the residues as written; N and C are the ends. Square brackets hold non-standard residues; d marks the D form. Peptide text beside a SMILES is read from it. * marks the point of attachment. pTerphenylCO(4''-OnC5H11) = CCCCCOc1ccc(-c2ccc(-c3ccc(C(=O)*)cc3)cc2)cc1; Orn(4R-OH,5R-OH) = O=C([C@H](C[C@@H](O)[C@@H](O)N[*:3])N[*:1])[*:2]; hTyr(3S-OH,4S-OH) = N[C@H](C(=O)O)[C@H](O)[C@@H](O)c1ccc(O)cc1; Pro(3S-OH,4S-Me) = C[C@H]1CN[C@H](C(=O)O)[C@H]1O; Hyp = O=C(O)[C@@H]1C[C@@H](O)CN1

Legend:
[1] = system: T. gondii tachyzoites (RH strain, clone 2F1); assay: microbe, parasite or virus in culture; type: cell-based, Toxoplasma gondii; conditions: for EC50: 72 h, read-out: EC50 ± SD against T. gondii tachyzoites
in vitro = conditions: human
T. gondii = system: T. gondii; set-up: method as in PMID 23019377; conditions: T. gondii-infected mice, after 16 days of treatment, cited from earlier work
[2] = Cytotoxicity in mammalian cells (MTT assay); conditions: human, HFF cells
HFF cells = assay: Cytotoxicity in mammalian cells (MTT assay); conditions: read-out: CC50 ± SD against HFF cells; HFF, 72 h, MTT; highest tested concentration 50 μM; ± SD of two independent experiments
[3] = CC50 HFF cells/EC50 T. gondii ratio
[4] = Toxoplasma gondii, RH-2F1 tachyzoites in HFF, β-galactosidase readout, ± SD of two independent experiments
[5] = RH-2F1 tachyzoites in HFF, β-galactosidase readout, ± SD of two independent experiments

Compound | Selectivity Index (SI) [1, 3] | EC50 [1, 4] | CC50 at 72 h [2] | other results
CCCCCOc1ccc(-c2ccc(-c3ccc(C(=O)N[C@H]4C[C@@H](O)[C@@H](O)NC(=O)[C@@H]5[C@@H](O)[C@@H](C)CN5C(=O)[C@H]([C@@H](C)O)NC(=O)[C@H]([C@H](O)[C@@H](O)c5ccc(O)cc5)NC(=O)[C@@H]5C[C@@H](O)CN5C(=O)[C@H]([C@@H](C)O)NC4=O)cc3)cc2)cc1 [Compound 19, Anidulafungin] ({pTerphenylCO(4''-OnC5H11)}-[Orn(4R-OH,5R-OH)]T[Hyp][hTyr(3S-OH,4S-OH)]T[Pro(3S-OH,4S-Me)]; lactam 1-C) | 47 | 0.83 ± 0.21 µM |  | CC50 (in vitro): 38.9 ± 15.7 µM
COc1cc2[nH]c(C)c(-c3ccc(Oc4ccc(OC(F)(F)F)cc4)cc3)c(=O)c2cc1F [ELQ-316] |  |  |  | reduction of the number of brain cysts (T. gondii; 25 mg/kg): 88%
OC(CNCC(O)C1CCc2cc(F)ccc2O1)C1CCc2cc(F)ccc2O1 (stereo not drawn) [Compound 28, Nebivolol] |  | 0.78 ± 0.28 µM | 37.1 ± 2.88 µM | Selectivity Index (SI) [1]: 48
CNC(=O)c1cc(Oc2ccc(NC(=O)Nc3ccc(Cl)c(C(F)(F)F)c3)c(F)c2)ccn1 [Compound 4, Regorafenib] | 29 | 0.4 ± 0.15 µM |  | CC50 at 72 h (in vitro): 11.6 ± 2.19 µM
COc1cccc2c1CCCC2CCCN1CCN(C2CCCCC2)CC1 (stereo not drawn) [Compound 23, PB 28] | >102 |  |  | EC50 [1, 5]: 0.49 ± 0.21 µM; CC50 (HFF cells): > 50 µM
C=CCNc1nc(NCC=C)nc(N2CCN(C(c3ccc(F)cc3)c3ccc(F)cc3)CC2)n1 [Compound 11, Almitrine] |  | 0.32 ± 0.14 µM | > 50 µM | 
COc1ccc2cc1Oc1ccc(cc1)C[C@H]1c3cc(c(OC)cc3CCN1C)Oc1c(O)c(OC)cc3c1[C@H](C2)N(C)CC3 [Compound 20, Hanfangchin B] | 54 |  |  | EC50 [1, 5]: 0.84 ± 0.19 µM; CC50 (HFF cells): 45 ± 5.85 µM
C[C@@H](C1CCCCC1)n1c(-c2cc3c(cc2Br)OCO3)nc2cc(C(=O)Nc3ccc(C#N)cc3)ccc21 [Compound 26, AZ3451] | >55 |  |  | EC50 [1, 5]: 0.91 ± 0.09 µM; CC50 (HFF cells): > 50 µM
O=C1NCN(c2ccccc2)C12CCN(CCCC(c1ccc(F)cc1)c1ccc(F)cc1)CC2 [Compound 14, Fluspirilene] |  | 0.76 ± 0.07 µM | > 50 µM | 
COc1ccc2cc1Oc1ccc(cc1)C[C@H]1c3cc(c(OC)cc3CCN1C)Oc1c(OC)c(OC)cc3c1[C@H](C2)N(C)CC3 [Compound 13, Tetrandrine] |  | 0.49 ± 0.15 µM |  | Selectivity Index (SI) [1]: 71; CC50 (in vitro): 34.7 ± 17 µM
CCC(C)n1ncn(-c2ccc(N3CCN(c4ccc(OCC5COC(Cn6cncn6)(c6ccc(Cl)cc6Cl)O5)cc4)CC3)cc2)c1=O (stereo not drawn) [Compound 5, Itraconazole] |  | 0.1 ± 0.01 µM | > 50 µM | 
O=C1C(O)=C([C@H]2CC[C@H](c3ccc(Cl)cc3)CC2)C(=O)c2ccccc21 [Atovaquone] |  |  |  | reduction of the number of brain cysts (T. gondii; 5 mg/kg): 44%
Nc1nc2nc[nH]c2c(=S)[nH]1 [Compound 6, Tioguanine] |  |  | > 50 µM | Selectivity Index (SI) [1]: >109; EC50 ([1]; Toxoplasma gondii): 0.46 ± 0.19 µM
CC(C)(C)Cn1c(N)nc2ccc(-c3[nH]c(C(C)(C)C)nc3-c3ccc(F)cc3)nc21 [Compound 7, LY 2228820] | 116 | 0.23 ± 0.01 µM |  | CC50 (in vitro): 26.6 ± 11.6 µM
O=C(Nc1ccc([N+](=O)[O-])cc1Cl)c1cc(Cl)ccc1O [Compound 1, Niclosamide] |  | 0.43 ± 0.15 µM | 35.5 ± 9.57 µM | Selectivity Index (SI) [1]: 83
CCSc1ccc2c(c1)N(CCCN1CCN(C)CC1)c1ccccc1S2 [Compound 21, Thiethylperazine] |  | 0.9 ± 0.11 µM |  | Selectivity Index (SI) [1]: 37; CC50 at 72 h (in vitro): 33.1 ± 6.01 µM

Compound | Selectivity Index (SI) [1, 3] | EC50 [1, 4] | CC50 at 72 h [2] | other results
COc1cc2c3cc1Oc1c(OC)c(OC)cc4c1[C@@H](Cc1ccc(O)c(c1)Oc1ccc(cc1)C[C@@H]3N(C)CC2)N(C)CC4 [Compound 18, Berbamine] | 61 | 0.74 ± 0.34 µM |  | CC50 (in vitro): 45.3 ± 5.4 µM
CN(C)CCOc1ccc(/C(=C(/CCCl)c2ccccc2)c2ccccc2)cc1 [Compound 16, Toremifene] |  |  |  | EC50 ([1]; Toxoplasma gondii): 0.85 ± 0.18 µM; CC50 at 72 h (in vitro): 44.3 ± 6.8 µM
O=c1[nH]c2ccccc2n1C1CCN(CCCC(c2ccc(F)cc2)c2ccc(F)cc2)CC1 [Compound 29, Pimozide] |  | 0.82 ± 0.22 µM | > 50 µM | Selectivity Index (SI) [1]: >61
CCN1CCN(Cc2ccc(Nc3ncc(F)c(-c4cc(F)c5nc(C)n(C(C)C)c5c4)n3)nc2)CC1 [Compound 12, Abemaciclib] |  | 0.05 ± 0.02 µM | > 50 µM | 
CCOc1ccc(Cc2nccc3cc(OCC)c(OCC)cc23)cc1OCC [Compound 3, Ethaverine] |  | 0.92 ± 0.09 µM |  | Selectivity Index (SI) [1]: >54; CC50 at 72 h (in vitro): > 50 µM
CO[C@H]1C[C@@H]2CC[C@@H](C)[C@@](O)(O2)C(=O)C(=O)N2CCCC[C@H]2C(=O)O[C@H]([C@H](C)C[C@@H]2CC[C@@H](O)[C@H](OC)C2)CC(=O)[C@H](C)/C=C(\C)[C@@H](O)[C@@H](OC)C(=O)[C@H](C)C[C@H](C)/C=C/C=C/C=C/1C [Compound 17, Rapamycin] |  | 0.77 ± 0.3 µM |  | Selectivity Index (SI) [1]: >65; CC50 at 72 h (in vitro): > 50 µM
O=C(O)c1ccc2c(c1)nc(Nc1cccc(Cl)c1)c1ccncc12 [Compound 22, Silmitasertib] |  | 0.87 ± 0.15 µM | 38.4 ± 16.4 µM | 
CCc1nc(N)nc(N)c1-c1ccc(Cl)cc1 [Compound 30, Pyrimetamine] |  | 0.37 ± 0.08 µM | > 50 µM | 
COC(=O)C1=C(C)NC(C)=C(C(=O)OCCN2CCN(C(c3ccccc3)c3ccccc3)CC2)C1c1cccc([N+](=O)[O-])c1 (stereo not drawn) [Compound 10, Manidipine] | >71 | 0.7 ± 0.25 µM |  | CC50 at 72 h (in vitro): > 50 µM
C[C@@H]1C[C@@H]([C@H](O)CC2CC(=O)NC(=O)C2)C(=O)[C@@H](C)C1 [Compound 25, Cycloheximide] |  | 0.04 ± 0.02 µM |  | CC50 (in vitro): 2.48 ± 0.08 µM
CNCc1[cH-]ccc1CNc1ccnc2cc(Cl)ccc12.[Fe+2].c1cc[cH-]c1 [Compound 27, Desmethyl ferroquine] | 71 |  |  | EC50 [1, 5]: 0.54 ± 0.02 µM; CC50 (HFF cells): 38.2 ± 15.6 µM
CNC(=O)c1cc(Oc2ccc(NC(=O)Nc3ccc(Cl)c(C(F)(F)F)c3)cc2)ccn1 [Compound 9, Sorafenib] |  | 0.65 ± 0.25 µM | 12.4 ± 3.17 µM | 
Nc1nc(Nc2ccc3c(c2)CC[C@@H](N2CCCC2)CC3)nn1-c1cc2c(nn1)-c1ccccc1CCC2 [Compound 2, Bemcentinib] | 83 | 0.38 ± 0.19 µM |  | CC50 at 72 h (in vitro): 31.6 ± 5.52 µM
COc1cc(NC(=O)Nc2cccc(CNC(=O)O[C@H]3CCOC3)c2)ccc1-c1cnco1 [Compound 24, Merimepodib] |  | 0.78 ± 0.27 µM |  | CC50 (in vitro): 26.4 ± 10 µM
CN(C)[C@@H]1C(O)=C(C(N)=O)C(=O)[C@@]2(O)C(O)=C3C(=O)c4c(O)cccc4[C@@](C)(O)[C@H]3C[C@@H]12 [Compound 15, Tetracycline] |  | 0.91 ± 0.09 µM |  | CC50 (in vitro): > 50 µM
